Assay results: patent publication US11852970B2, “Material for lithography, production method therefor, composition for lithography, pattern formation method, compound, resin, and method for purifying the compound or the resin” (Mitsubishi Gas Chemical Company, Inc., priority 2015, dated 2023)

Assay: Safe solvent solubility test of compound
Type: physicochemical
Conditions: amount of dissolution in propylene glycol monomethyl ether acetate at 23° C., ultrasonic 30 minutes, visual
Method: The solubility of the compound in propylene glycol monomethyl ether acetate was measured as the solubility of the compound in a safe solvent. The solubility was evaluated according to the following criteria utilizing the amount of dissolution in propylene glycol monomethyl ether acetate. The amount of dissolution was measured at 23° C. by precisely weighing the compound into a test tube, adding propylene glycol monomethyl ether acetate so as to attain a predetermined concentration, applying ultrasonic waves for 30 minutes in an ultrasonic cleaner, then visually observing the subsequent state of the fluid, and conducting evaluation on the basis of the concentration of the amount of complete dissolution. • A: 5.0% by mass≤Amount of dissolution • B: 3.0% by mass≤Amount of dissolution<5.0% by mass • C: Amount of dissolution<3.0% by mass (2) Storage Stability and Thin Film Formability of Resist Composition

| SMILES | Safe solvent solubility test |
| --- | --- |
| CC1(OC(=O)COc2ccc([Te](Cl)(Cl)c3ccc(OCC(=O)OC4(C)C5CC6CC(C5)CC4C6)cc3)cc2)C2CC3CC(C2)CC1C3 (stereo not drawn) [BHPT-ADBAC, bis(4-(2-methyl-2-adamantyloxycarbonylmethoxy)phenyl)tellurium dichloride] | A (5.0% by mass≤Amount of dissolution) |
| CC(C)(C)OC(=O)COc1ccc([Te]c2ccc(OCC(=O)OC(C)(C)C)cc2)cc1 [Ph-TDP-BOC] | A (5.0% by mass≤Amount of dissolution) |
| Oc1ccc([Te](Cl)(Cl)c2ccc(O)c(-c3ccccc3)c2)cc1-c1ccccc1 [Ph-BHPT, bis(3-phenyl-4-hydroxyphenyl)tellurium dichloride] | A (5.0% by mass≤Amount of dissolution) |
| CC1(OC(=O)COc2ccc([Te](Cl)(Cl)c3ccc(OCC(=O)OC4(C)C5CC6CC(C5)CC4C6)c(-c4ccccc4)c3)cc2-c2ccccc2)C2CC3CC(C2)CC1C3 (stereo not drawn) [Ph-BHPT-ADBAC] | A (5.0% by mass≤Amount of dissolution) |
| Oc1ccc([Te]c2ccc(O)c(-c3ccccc3)c2)cc1-c1ccccc1 [Ph-TDP, bis(3-phenyl-4-hydroxyphenyl)tellurium] | A (5.0% by mass≤Amount of dissolution) |
| Oc1ccc([Te](Cl)(Cl)c2ccc(O)cc2)cc1 [BHPT, bis(4-hydroxyphenyl)tellurium dichloride] | A (5.0% by mass≤Amount of dissolution) |
| CC1(OC(=O)COc2ccc([Te]c3ccc(OCC(=O)OC4(C)C5CC6CC(C5)CC4C6)cc3)cc2)C2CC3CC(C2)CC1C3 (stereo not drawn) [TDP-ADBAC] | A (5.0% by mass≤Amount of dissolution) |
| CC(C)(C)OC(=O)Oc1ccc([Te](Cl)(Cl)c2ccc(OC(=O)OC(C)(C)C)cc2)cc1 [BHPT-BOC, bis(tert-butoxycarboxyphenyl)tellurium dichloride] | A (5.0% by mass≤Amount of dissolution) |
| Oc1ccc([Te]c2ccc(O)cc2)cc1 [TDP, 4,4′-telluriumdiphenol] | A (5.0% by mass≤Amount of dissolution) |
| CC1(OC(=O)COc2ccc([Te]c3ccc(OCC(=O)OC4(C)C5CC6CC(C5)CC4C6)c(-c4ccccc4)c3)cc2-c2ccccc2)C2CC3CC(C2)CC1C3 (stereo not drawn) [Ph-TDP-ADBAC] | A (5.0% by mass≤Amount of dissolution) |
| CCOC(C)Oc1ccc([Te](Cl)(Cl)c2ccc(OC(C)OCC)c(-c3ccccc3)c2)cc1-c1ccccc1 (stereo not drawn) [Ph-TDP-EE] | A (5.0% by mass≤Amount of dissolution) |
| CCOC(C)Oc1ccc([Te](Cl)(Cl)c2ccc(OC(C)OCC)cc2)cc1 (stereo not drawn) [BHPT-EE, bis(ethoxyethylphenyl)tellurium dichloride] | A (5.0% by mass≤Amount of dissolution) |
